The values that follow are results of earlier work, collected in US20250369953A1, “METHODS FOR MEASURING CIRCADIAN RHYTHM FACTORS” (priority 2024, published 2025).

Regarding `COc1ccc2[nH]cc(CCNC(C)=O)c2c1` [Melatonin, N-acetyl-5-methoxytryptamine], under “endogenous, nighttime sleep, occurring at approximately 02:00 am”, the peak plasma concentrations entry is on record as “approximately 70 μg/ml”. Further, for the setting “healthy young adult humans”, the metabolic clearance result is given as “approximately 1 liter per minute” and the volume of distribution entry is listed as “approximately 40 liters”.
